Measured values taken from patent US10881677B2, “Composition for modulating IRAK1” (Agency for Science, Technology and Research, priority 2015, dated 2021).
“Also recorded” adds a separate entry of the source. Values belong to the compound of their own block, whether it stands above or below them.

Legend:
MDA231-PR cells = assay: Cell viability IC50 curves, sensitivity of paclitaxel-resistant cells to agents; assay type: cell-based
Description: FIG. 17. (a). IC50 curves showing cell viability after treatment with paclitaxel (PTX), vincristine (VCR), gemcitabine, doxorubicin (ADR), cisplatin, 5-fluorouracil (5-FU) and pacritinib in parental and pacitaxel-treated MDA-MB-231 (MDA231-PR) cells. (b). Graphical representation of relative sensitivities. (c).
(§1) For cell proliferation assay, the optimal cell seeding was first determined empirically for all cell lines by examining the growth of a wide range of seeding densities in a 96-well format to identify conditions that permitted proliferation for 7 days. Cells were then plated at the optimal seeding density 24 h before siRNA or drug treatment in triplicate. Plates were incubated for 7 days at 37° C. in 5% CO2. Cells were then lysed with CellTiter-Glo (CTG) (Promega, Madison, Wis.) and chemiluminescent signal was detected with a microplate reader on Day 0, 1, 3, 5 and 7. In addition, an untreated plate of cells was harvested at the time of drug or siRNA addition (T0) to quantify the starting number of cells. CTG values obtained after the 7 day treatment were expressed as percentages of the T0 value and plotted against time of treatment.

p-IRAK1 (T209) = biological target: T1, p-IRAK1 (T209) (Homo sapiens, UniProt P51617); assay: Western blot of p-IRAK1 in immunoprecipitated IRAK1; assay type: cell-based; conditions: for induction of p-IRAK1 by chemotherapeutic agent: MDA231 (also SUM159) cells, PTX 5 nM, ADR 2 μM, Cisplatin 5 μM, up to 48 hours
T1 construct: The whole cell lysate were extracted with the NE-PER kit (Pierce Biotechnology) and subjected to immunoprecipitation using 2 μg total-IRAK1 antibody; endogenous in cells; host or cells: TNBC cell lines (BT549, MB436, MB468, MDA231, MDA231-LM2, SUM159 and paclitaxel-resistant sublines)
T1 sequence (P51617 whole entry): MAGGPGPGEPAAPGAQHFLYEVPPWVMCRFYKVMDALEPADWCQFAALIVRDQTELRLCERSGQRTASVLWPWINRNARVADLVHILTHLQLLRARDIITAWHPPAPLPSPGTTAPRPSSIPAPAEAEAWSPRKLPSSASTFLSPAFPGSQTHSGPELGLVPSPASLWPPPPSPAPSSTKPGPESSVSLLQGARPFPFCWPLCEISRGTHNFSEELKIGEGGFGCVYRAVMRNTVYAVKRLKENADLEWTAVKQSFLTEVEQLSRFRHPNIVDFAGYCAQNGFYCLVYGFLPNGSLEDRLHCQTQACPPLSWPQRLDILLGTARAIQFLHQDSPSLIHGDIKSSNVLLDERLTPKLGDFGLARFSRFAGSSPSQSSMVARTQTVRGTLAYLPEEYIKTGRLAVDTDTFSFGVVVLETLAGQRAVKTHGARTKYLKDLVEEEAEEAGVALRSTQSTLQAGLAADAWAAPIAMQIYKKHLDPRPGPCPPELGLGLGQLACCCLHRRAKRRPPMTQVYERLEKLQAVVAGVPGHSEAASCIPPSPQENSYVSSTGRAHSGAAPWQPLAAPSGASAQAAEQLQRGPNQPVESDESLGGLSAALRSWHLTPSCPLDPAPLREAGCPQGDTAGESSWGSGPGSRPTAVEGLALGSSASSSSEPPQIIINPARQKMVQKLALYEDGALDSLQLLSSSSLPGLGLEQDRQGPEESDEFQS
Procedure: (§2) Western Blotting was performed as described previously (8). IRAK1 (Cat no: #4359), IRAK4 (Cat no.: 4363), cleaved PARP (Cat no.: #9541), p38 MAPK (Cat no.: #9212), phospho-p38 MAPK (T180/Y182) (Cat no.: #9211), phospho-NF-KappaB p65 (S536) (Cat no. #3031) were purchased from Cell Signaling (Danvers, Mass.). Phospho-IRAK1 (T209) antibody was purchased from Assay Biotech (Sunnyvale, Calif., Cat no.: A1074) and phospho-IRAK1 (S376) antibody from Genetex (Irvine, Calif., Cat no.: GTX50994). MCL-1 antibody was purchased from Santa Cruz Biotechnology (Santa Cruz, Calif., Cat no.: sc-819). Actin was purchased from Sigma-Aldrich (St Louis, Mo., Cat no.: A5441). Detection of bands was performed with the ChemiDoc™ MP Imaging Systems (Bio-Rad, Hercules, Calif.) and bands were subjected to further densitometric analysis with Image Lab software (Version 4.1, Bio-rad, Hercules, Calif.).
Co-IP was performed as described previously (9). The whole cell lysate were extracted with the NE-PER kit (Pierce Biotechnology) and subjected to immunoprecipitation using 2 μg total-IRAK1 antibody (Santa Cruz Biotech, Santa Cruz, Calif., Cat no.: sc-7883). The precipitated protein complex was captured using protein A-Agarose beads (Roche) and extensively washed with the washing buffer (50 mM Tris-HCl, 150 mM NaCl, 0.1% triton). The precipitated proteins were dissolved in SDS sample buffer along with 3 mM DTT, and subjected to immunoblotting analysis. Phospho-IRAK1 (T209) (Assay Biotechnology, Sunnyvale, Calif., Cat no.: A1074) was used for detection.

SUM159PT = assay: Paclitaxel EC50 in parental SUM159PT cells; assay type: cell-based; conditions: Homo sapiens, SUM-159-PT, read-out: intrinsic EC50 to Paclitaxel
Procedure: (§3) To establish the Paclitaxel acquired resistant TNBC cell lines, both SUM159PT and MDA231 cells were used. […] During these treatment cycles, only cells with a high intrinsic resistance or those which had acquired resistance to the drug survived. The cycle was further repeated until the stable resistant cell line (SUM159PR or MDA231PR) SUM159PR cells were stably maintained in 1 μM Paclitaxel and MDA231 in 75 nM of Paclitaxel with complete medium, making them at least ˜1000-fold more resistant than their parental cell lines.
as §1

[1] = test system: BT549, MB436, MB468, MDA231 and MDA231-LM2 cells; assay: Mammosphere formation assay; assay type: cell-based; conditions: for mammosphere forming capacity after Paclitaxel pretreatment: MDA231 cells, 10 nM Paclitaxel 4 days, remaining viable cells; for mammosphere growth: 5 μM IRAK-inh
Procedure: Active growing cells were treated with 0.05% trypsin for 10 minutes then passed through […] cell strainer to achieve single cell suspension. Cells were plated (MDA231: 1×10^4; MB436: 3×10^4; MB468: 4×10^4 cells/well, BT549: 3×10^4, MDA231-LM2: 3×10^4) seeded in 6-well ultra-low attachment plates (Corning, Corning, N.Y., cat: CLS3471) in Mammocult medium (Stem cell Technologies, Vancouver, BC, Canada), supplemented with fresh hydrocortisone (0.51 μg/ml) and heparin (1:500). Tumorspheres were cultured for 7 days prior to being counted and photographed. Imaging and quantification were done using GelCount™ apparatus and associated software (Oxford Optronix, Abingdon, UK). For serial passages of tumorsphere formation assay, the spheres were collected by gentle centrifugation, dissociated to single cells for passaging tumorspheres every 14 days and counted. Tumorspheres were photographed and quantified 7-12 days later using a GelCount Colony Counter after staining with INT.

[2] = test system: ALDH-positive cell population; assay: ALDEFLUOR assay; assay type: cell-based; conditions: after paclitaxel treatment
Procedure: ALLEFLUOR assay was performed using the manufacturer's recommended protocol (ALDEFLUOR kit, Stemcell Technologies; catalogue number: #01700). In brief, one million single-cell suspensions were centrifuged and resuspended in ALDEFLUOR assay buffer supplied in the kit. Each sample cells were incubated with or without an ALDH-specific inhibitor 15 mM diethylaminobenzaldehyde in the presence of 0.15 mM ALDH substrate. ALDEFLUOR stainings were detected using fluorescein isothiocyanate channel of a FACSCalibur Flow Cytometry System (BD Biosciences) after 25 min incubation at 37° C. Diethylaminobenzaldehyde inhibitor control sample was used as sorting gate reflecting background fluorescence levels for each cell lines.

SUM159PR or MDA231PR = assay: Acquired Paclitaxel resistance of stepwise-selected resistant sublines; assay type: cell-based; conditions: SUM159PR kept in 1 μM, MDA231PR in 75 nM Paclitaxel
Procedure: as §3

[3] = test system: IL1B, IL6 and IL8 mRNAs in MDA231 cells; assay: qRT-PCR of cytokine mRNAs after chemotherapy; assay type: cell-based; conditions: 5 nM PTX, VCR 3 days
Procedure: Total RNA was isolated by using Qiazol (Life technologies, Carlsbad, Calif.) and purified with the RNeasy Mini Kit (Qiagen, Valencia, Calif.). Reverse transcription and quantitative PCR assays were performed using High Capacity cDNA Archive kit and KAPA SyBr Fast qPCR kit (KAPA Biosystems, Wilmington, Mass.). For quantification of mRNA levels, 18S level was used as an internal control. All reactions were analyzed in an Applied Biosystems PRISM 7500 Fast Real-Time PCR system in 96-well plate format.

[4] = test system: MDA231 and SUM159 parental and Paclitaxel-resistant sublines (PR); assay: Cell viability of parental and Paclitaxel-resistant sublines, combination treatment; assay type: cell-based
Procedure: as §1

[5] = test system: p38-MCL-1 signaling in SUM159-PR cells; assay: Western blot of p-p38, MCL-1 and cleaved PARP; assay type: cell-based; conditions: inhibitor with Paclitaxel
Procedure: as §2

[6] = test system: non-cancerous MCF10A and HMLE cells; assay: 3D Matrigel growth of non-cancerous cells; assay type: cell-based; conditions: 5 uM IRAK-inh, one week
[7] = test system: SUM159-PR and MDA231-PR cells; assay: Apoptosis by FACS analysis of Sub-G1 cells; assay type: cell-based; conditions: Paclitaxel-resistant cells
Procedure: Cell cycle analysis was done by DNA content quantification to quantify the sub-G1 population which is reflective of the extent of cell death. Briefly, the cells were fixed with 70% ethanol and stained with propidium iodide (50 μg/ml) staining. The stained cells were analyzed by FACScalibur (BD Bioscience) and quantified by using CellQuest software (BD bioscience).

[8] = test system: BT549, MB436, MB468, MDA231 and MDA231-LM2 cells; assay: 3D Matrigel growth of TNBC cells; assay type: cell-based; conditions: 5 μM IRAK-inh
Procedure: 8-well chamber slides (Falcon, cat: 354656, Falcon) were precoated with 7.6 mg/mL growth factor-reduced Matrigel (Falcon, cat: 354230, Falcon) for 30 min at 37° C. Approximately 5×10^3 for MDA231, 1×10^4 for MB436 and MB468, 1.5×10^4 cells for BT549 with indicated treatments were seeded in each well with DMEM containing 10% (vol/vol) FBS and 150 μg/mL Matrigel. Medium were replenished every 3 days and cell growth was monitored every 3 days by imaging over duration of 10-14 days.

IRAK1 = IRAK1 (Homo sapiens, UniProt P51617); conditions: recently shown in Myelodysplastic Syndrome (ref 20); cited from earlier work
Chain of IRAK1 (P51617 whole entry, species assumed): as the sequence (P51617 whole entry) above

[9] = test system: IL-6, IL-8 and CXCL1 secretion; assay: ELISA of cytokine secretion; assay type: cell-based
Procedure: IL-6, IL-8 and CXCL1 levels were assessed using ELISA assay kit (Boster Bio, Pleasanton, Calif.). Supernates of the mammosphere formation assay were collected after 10 days in culture. 1:50 dilution was performed on the supernates before quantifying the amount of cytokines according to the manufacturer's protocol. For cytokine antibody array, supernates collected from the NS or shIRAK1 MB436 mammospheres after 10 days in culture were used directly without further dilution. Semi-quantitative detection of 120 human cytokines and chemokines in the supernates were performed using the RayBio® C-series Human Cytokine Antibody Array C1000 (RayBiotech, Inc., Norcross, GS, Cat no.: #AAH-CYT-1000-2) as per manufacturer's instructions. Detection of dots was performed with the ChemiDoc™ MP Imaging Systems (Bio-Rad, Hercules, Calif.) and the intensity of dots were quantified by densitometric analysis using the ImageJ software. The raw numerical densitometry data is extracted and subjected to background subtraction before normalizing the signal for each cytokines against the Positive Control signals in each cytokine array.

MDA231-LM2 cells = assay: Mammary fat pad MDA231-LM2 xenograft, lung metastasis by bioluminescence imaging; assay type: in vivo, NOD/SCID mice; conditions: for lung metastasis: IRAK-inh 4 mg/kg, qd, ip, 14 days, started 7 days before primary tumor removal

induction of p-IRAK1 by chemotherapeutic agent (p-IRAK1 (T209)): marked induction
induction of p-IRAK1 by chemotherapeutic agent (p-IRAK1 (T209); listed as paclitaxel): marked induction
IRAK1 signaling activated by chemotherapeutic agents (p-IRAK1 (T209); discussion statement): activated
SMILES: CC(=O)O[C@H]1C(=O)[C@@]2(C)[C@H]([C@H](OC(=O)c3ccccc3)[C@]3(O)C[C@H](OC(=O)[C@H](O)[C@@H](NC(=O)c4ccccc4)c4ccccc4)C(C)=C1C3(C)C)[C@]1(OC(C)=O)CO[C@@H]1C[C@@H]2O [Paclitaxel]
shift of the IC50 curve (MDA231-PR cells; MDA231-PR versus parental MDA-MB-231): marked right shift
sensitivity of paclitaxel-resistant cells to agent (MDA231-PR cells; paclitaxel-treated/resistant cells over-expressing p-IRAK1): markedly resistant; also recorded: no longer susceptible; also recorded: no longer responsive
EC50 (SUM159PT): 3.88 nM
mammosphere forming capacity after Paclitaxel pretreatment [1]: increased mammosphere forming capacity
mammosphere forming capacity after Paclitaxel pretreatment ([1]; listed as paclitaxel): potentiated mammosphere formation
ALDH-positive cell population [2]: expansion of the ALDH-positive cell population
fold more resistant than parental cell lines (SUM159PR or MDA231PR): ≥ 1000 fold
expression of IL1B, IL6 and IL8 mRNAs [3]: induced

SMILES: O=C(Nc1nc2ccccc2n1CCN1CCOCC1)c1cccc([N+](=O)[O-])c1 [IRAK-inh]
p-IRAK1 in TNBC cells (p-IRAK1 (T209); IRAK-inh 5 μM): effectively abolished the p-IRAK1
IL-1β-induced p-IRAK1 (p-IRAK1 (T209); MB436 cells, recombinant IL-1β, IRAK-inh 5 uM): abrogated
cell viability, combined with sub-toxic Paclitaxel ([4]; both Paclitaxel-resistant cell lines (MDA231-PR, SUM159-PR), 5 μM IRAK-inh): dramatic loss of cell viability
cell death in combination with paclitaxel ([4]; paclitaxel-resistant MDA231 cells, IRAK-inh 5 μM): dramatic cell death
cell viability, inhibitor on its own ([4]; paclitaxel-resistant MDA231 cells, IRAK-inh 5 μM alone): no effect
PARP cleavage [5]: increased PARP cleavage
p-p38 and MCL-1 expression [5]: decrease
3D Matrigel growth / morphology [6]: no effect
apoptosis, combined with Paclitaxel [7]: massive apoptosis
mammosphere growth ([1]; BT549, MB436 and MB468 cells): marked inhibition
mammosphere growth ([1]; MDA231-LM2 cells, 7 days): impaired
3D Matrigel growth ([8]; BT549, MB436 and MB468 cells): marked inhibition
3D Matrigel growth ([8]; MDA231-LM2 cells, 7 days): impaired
activity against IRAK1 (IRAK1): potent activity against IRAK1
IL-8 and CXCL1 secretion ([9]; IRAK-inh-sensitive TNBC cells, 5 μM IRAK-inh): strong reduction
secretion of IL-6, IL-8 and CXCL1 ([9]; Paclitaxel-resistant cells, IRAK1-inh plus Paclitaxel): reduced secretion
lung metastasis (MDA231-LM2 cells; listed as IRAK1-inh): markedly reduced
lung metastasis (MDA231-LM2 cells; listed as IRAK1-inn): effectively blocked
survival of mice carrying TNBC metastasis (MDA231-LM2 cells; IRAK-inh treatment): extended the survival
